Measured values taken from patent publication US20150152395A1, “CHIMERIC LUCIFERASES” (Connecticut College, priority 2012, published 2015).

Columns and labels:
Experiment in all cases: Steady-state kinetic constants, bioluminescence activity
[1] = target: T1, Photinus pyralis luciferase PpyWT variant Ppy14, Ala450Pro/Ile457Val/Leu472Val/Asp475Ser/Asp476Glu/Ala482Gly/Leu487Met/His489Lys/Ala503Asn/Thr507Val/Thr508Asn/A (Photinus pyralis, UniProt P08659, A450P/A482G/A503N/A509H/D475S/D476E/H489K/I457V/K511R/L472V/L487M/T507V/T508N/V517R); type: biochemical
T1 construct: N-terminal GPLGS; pGEX-6P-2 GST fusion (tag cleaved), E. coli BL21

[2] = target: Photinus pyralis luciferase, recombinant wild type (PpyWT), SEQ ID NO: 4, with N-terminal peptide GPLGS (Photinus pyralis, UniProt P08659); type: biochemical
[3] = system: LitPpy, chimeric luciferase of LitWT residues 1-439 and PpyWT residues 440-550; type: biochemical, Luciola italica / Photinus pyralis
Experimental: Reactions were initiated by injection of solutions of the substrate being maintained at saturating concentration. Kinetic constants were determined using a nonlinear least squares method of the Enzyme Kinetics Pro software (SynTex), which fits data from the Michalis-Menten equation to a rectangular hyperbola. The corresponding kcat values were obtained by dividing the Vmax values by the amount (μmol) of each luciferase in the assay mixtures.

[4] = target: T2, Photinus pyralis luciferase variant Ppy WT-TS5/I351V, PpyWT-TS (SEQ ID NO: 22) with Ile457Val/Ala482Gly/His489Lys/Ala503Asn/Lys543Gln/Ile351Val, SEQ ID NO: 12 (Photinus pyralis, UniProt P08659, A215L/A482G/A503N/E354K/F295L/H489K/I232A/I351V/I457V/K543Q/T214A); type: biochemical
T2 construct: N-terminal GPLGS; pGEX-6P-2 GST fusion (tag cleaved), E. coli BL21

[5] = target: T3, Photinus pyralis luciferase variant Ppy RE-TS5/I351V, PpyRE-TS (SEQ ID NO: 24) with Ile457Val/Ala482Gly/His489Lys/Ala503Asn/Lys543Gln/Ile351Val, SEQ ID NO: 14 (Photinus pyralis, UniProt P08659, A215L/A482G/A503N/E354K/F295L/H489K/I232A/I351V/I457V/K543Q/S284T/T214A); type: biochemical
T3 construct: N-terminal GPLGS; pGEX-6P-2 GST fusion (tag cleaved), E. coli BL21

[6] = target: T4, 6×His-PpyWT, Photinus pyralis luciferase PpyWT with N-terminal peptide MRGSHHHHHHGS (SEQ ID NO: 27) in place of GPLGS (Photinus pyralis, UniProt P08659); type: biochemical
T4 construct: pQE-30, E. coli; Ni-NTA purified

[7] = target: LitWT, recombinant Luciola italica luciferase containing Lys547Gly/Met548Gly, SEQ ID NO: 6, with N-terminal peptide GPLGS (Luciola italica, UniProt Q1AG35, K547G/M548G); settings: kcat divided by Mg-ATP Km
[8] = read-out: Km Mg-ATP, pH 7.8, LH2 saturating
[9] = pH 7.8, LH2 saturating, read-out: Km Mg-ATP

Chain of Photinus pyralis luciferase, recombinant wild type (PpyWT), SEQ ID NO: 4, with N-terminal peptide GPLGS (P08659 whole entry, the tested form may be a part): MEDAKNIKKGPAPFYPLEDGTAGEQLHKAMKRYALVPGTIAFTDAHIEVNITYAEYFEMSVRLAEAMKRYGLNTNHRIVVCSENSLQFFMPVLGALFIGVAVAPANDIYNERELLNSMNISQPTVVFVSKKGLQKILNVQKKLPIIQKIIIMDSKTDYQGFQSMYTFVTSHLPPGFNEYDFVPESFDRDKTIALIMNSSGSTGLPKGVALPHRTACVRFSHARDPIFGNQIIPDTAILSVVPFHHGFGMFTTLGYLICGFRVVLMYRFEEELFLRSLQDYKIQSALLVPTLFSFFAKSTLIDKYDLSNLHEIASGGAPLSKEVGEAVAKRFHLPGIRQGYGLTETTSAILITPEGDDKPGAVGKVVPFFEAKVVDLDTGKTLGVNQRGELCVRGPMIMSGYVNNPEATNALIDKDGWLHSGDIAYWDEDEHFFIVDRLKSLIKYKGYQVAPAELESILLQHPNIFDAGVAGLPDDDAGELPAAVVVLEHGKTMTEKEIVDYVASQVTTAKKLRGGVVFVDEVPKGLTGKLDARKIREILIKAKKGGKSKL
T4 sequence (P08659 whole entry): as the sequence (P08659 whole entry, the tested form may be a part) above
T1 sequence (P08659 whole entry A450P/I457V/L472V/D475S/D476E/A482G/L487M/H489K/A503N/T507V/T508N/A509H/K511R/V517R, the tested form may be a part): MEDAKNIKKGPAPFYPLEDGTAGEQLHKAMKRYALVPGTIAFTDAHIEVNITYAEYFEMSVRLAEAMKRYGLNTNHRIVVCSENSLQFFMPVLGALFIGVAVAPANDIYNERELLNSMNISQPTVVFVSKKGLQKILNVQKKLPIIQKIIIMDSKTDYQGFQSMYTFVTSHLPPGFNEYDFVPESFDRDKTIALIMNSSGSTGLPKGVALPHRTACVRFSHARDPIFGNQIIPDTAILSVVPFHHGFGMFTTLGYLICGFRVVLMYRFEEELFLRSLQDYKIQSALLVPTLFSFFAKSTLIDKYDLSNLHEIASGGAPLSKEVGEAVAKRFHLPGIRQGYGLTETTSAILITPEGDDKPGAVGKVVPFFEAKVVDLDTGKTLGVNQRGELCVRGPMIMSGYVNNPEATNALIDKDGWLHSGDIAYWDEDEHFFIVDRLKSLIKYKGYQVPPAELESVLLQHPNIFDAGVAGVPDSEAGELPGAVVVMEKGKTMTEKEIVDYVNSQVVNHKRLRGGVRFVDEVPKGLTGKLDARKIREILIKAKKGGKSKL
T3 sequence (P08659 whole entry T214A/A215L/I232A/S284T/F295L/I351V/E354K/I457V/A482G/H489K/A503N/K543Q, the tested form may be a part): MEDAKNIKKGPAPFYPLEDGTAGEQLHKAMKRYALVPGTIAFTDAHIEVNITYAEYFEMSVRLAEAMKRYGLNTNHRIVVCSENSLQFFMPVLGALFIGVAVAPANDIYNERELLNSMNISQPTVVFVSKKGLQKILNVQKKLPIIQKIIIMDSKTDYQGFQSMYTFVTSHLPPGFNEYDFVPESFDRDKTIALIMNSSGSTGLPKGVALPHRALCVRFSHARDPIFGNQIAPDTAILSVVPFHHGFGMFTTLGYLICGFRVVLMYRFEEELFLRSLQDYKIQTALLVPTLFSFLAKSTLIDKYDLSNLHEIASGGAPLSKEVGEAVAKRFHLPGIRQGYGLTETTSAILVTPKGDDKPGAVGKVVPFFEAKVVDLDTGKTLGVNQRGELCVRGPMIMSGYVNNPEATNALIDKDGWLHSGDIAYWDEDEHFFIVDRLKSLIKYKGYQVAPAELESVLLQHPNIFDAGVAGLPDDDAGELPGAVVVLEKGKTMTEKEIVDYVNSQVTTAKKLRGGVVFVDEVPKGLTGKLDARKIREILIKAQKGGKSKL
T2 sequence (P08659 whole entry T214A/A215L/I232A/F295L/I351V/E354K/I457V/A482G/H489K/A503N/K543Q, the tested form may be a part): as the sequence (P08659 whole entry T214A/A215L/I232A/S284T/F295L/I351V/E354K/I457V/A482G/H489K/A503N/K543Q, the tested form may be a part) above, with T284S counted along it
Chain of LitWT, recombinant Luciola italica luciferase containing Lys547Gly/Met548Gly, SEQ ID NO: 6, with N-terminal peptide GPLGS (Q1AG35 1-548 K547G/M548G): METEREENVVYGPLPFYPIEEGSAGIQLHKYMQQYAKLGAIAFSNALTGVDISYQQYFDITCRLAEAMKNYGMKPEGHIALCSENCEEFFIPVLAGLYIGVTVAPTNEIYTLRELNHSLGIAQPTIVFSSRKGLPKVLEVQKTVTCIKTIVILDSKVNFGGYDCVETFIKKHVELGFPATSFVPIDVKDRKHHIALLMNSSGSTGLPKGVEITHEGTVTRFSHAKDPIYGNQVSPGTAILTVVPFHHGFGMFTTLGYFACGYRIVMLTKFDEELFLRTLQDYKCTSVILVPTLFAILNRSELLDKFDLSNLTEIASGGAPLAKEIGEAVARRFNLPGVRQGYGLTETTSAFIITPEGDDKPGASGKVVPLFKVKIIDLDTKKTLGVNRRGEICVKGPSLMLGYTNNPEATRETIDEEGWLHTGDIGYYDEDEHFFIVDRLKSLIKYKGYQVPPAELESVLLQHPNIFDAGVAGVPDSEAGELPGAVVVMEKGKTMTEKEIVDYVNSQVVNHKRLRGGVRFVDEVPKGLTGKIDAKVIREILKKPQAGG

In the case of `Nc1ncnc2c1ncn2[C@@H]1O[C@H](COP(=O)(O)OP(=O)(O)OP(=O)(O)O)[C@@H](O)[C@H]1O` [Mg-ATP], the kcat/Km ([1]; kcat divided by Mg-ATP Km) is reported as 6340 ± 110 M⁻¹ s⁻¹, the Km [1, 8] is reported as 41 ± 3 µM and the kcat/Km ([2]; kcat divided by Mg-ATP Km) is reported as 2090 ± 100 M⁻¹ s⁻¹. The Km [2, 9] was 86 ± 7 µM, the kcat/Km ([3]; kcat divided by Mg-ATP Km) was 1180 ± 60 M⁻¹ s⁻¹ and the Km [3, 9] was 188 ± 10 µM. The kcat/Km ([4]; kcat divided by Mg-ATP Km) was 3160 ± 70 M⁻¹ s⁻¹, the Km [4, 8] was 79 ± 5 µM and the kcat/Km ([5]; kcat divided by Mg-ATP Km) was 1290 ± 140 M⁻¹ s⁻¹. For the same compound, the Km [5, 8] was 93 ± 19 µM, the kcat/Km ([6]; kcat divided by Mg-ATP Km) was 1930 ± 110 M⁻¹ s⁻¹ and the Km [6, 9] was 93 ± 9 µM. It also gave a kcat/Km [7] of 780 ± 110 M⁻¹ s⁻¹.
